{"source": "PubChem BioAssay AID2060621", "about": "(Molecular Pharmacology Branch, DTP, NCI, 2025)", "tested_on": "324938-238-R-J1-PDC complex spheroids viability", "assay": "Anticancer human tumor 324938-238-R-J1-PDC patient-derived bladder carcinoma cell line growth inhibition [CLK]", "details": "for viability, T/C: stronger effect = lower value", "text": "A high-throughput screen of multi-cell type tumor spheroids was designed to identify active combinations of […] and targeted small molecules. Complex spheroids include a stromal component modeled by human endothelial cells (HUVEC) and fibroblasts modeled by human mesenchymal stem cells (MSCs). The concentration ranges selected for each drug and investigational agent were based upon clinically achievable concentrations if the clinical Cmax of the agent was known.\nCompounds. The drugs and investigational agents: cirtuvivint (SM08502; NSC835563), CC-671 (NSC850746), vemurafenib (NSC761431), tapotoclax (NSC804041), sotorasib (NSC818433), adagrasib (NSC831453), MRTX-1133 (NSC836407), BAY2416964 (NSC825713), copanlisib (NSC816437), inavolisib (NSC800729), abemaciclib (NSC768073), osimertinib (NSC779217), entinostat (NSC756642), eltanexor (KPT-8602, NSC794443), venetoclax (NSC766270), ceralasertib (NSC777638), bortezomib (NSC756655), olaparib (NSC753686), talazoparib (NSC767125), alisertib (NSC759677), peposertib (NSC802822), gemcitabine (NSC613327), 5-fluorouracil (NSC19893), SN-38 (NSC673596), oxaliplatin (NSC266046), paclitaxel (NSC125973), and doxorubicin (NSC123127), were obtained from the National Cancer Institute (NCI) Developmental Therapeutics Program Chemical Repository. The FDA-approved anticancer drug set is available from the Developmental Therapeutics Program at https://dtp.cancer.gov/organization/dscb/obtaining/available plates.htm. […] The stock solutions were prepared in dimethyl sulfoxide (DMSO, Sigma-Aldrich, St. Louis, MO, cat. D2650), except for the platinum complexes which were prepared in saline (Quality Biological, Gaithersburg, MD, cat. 114-055-101), at 800-fold the tested concentration and stored at -70 degrees C prior to their use. All drugs and investigational agents were tested over a range starting from a high concentration at or near the clinical Cmax and decreasing in half-log increments. If the clinical Cmax for an agent had not been determined, the highest concentration tested was 10 microM.\nCell Culture. All cells were maintained in an incubator at 37 degrees C and 5% CO2 with 95% humidity. The PDC lines were cultured according to standard operating procedures established by the NCI PDMR. Briefly, all PDCs were thawed and cultured in Matrigel-coated flasks prepared with a working solution of 1X Ham's F-12 nutrient mix, without supplementation (Invitrogen, Waltham, MA, cat. 11765054), 100 U/mL penicillin-streptomycin (Invitrogen, cat. 15140122), and 2.5% Matrigel (Corning Inc., Corning, NY, cat. 354248) for the first three passages. The 947758-054-R-J2-PDC line was cultured in 6B/Colon 1A media, which includes advanced DMEM/F-12 (Thermo Fisher Scientific, cat. 12634028), 10 mM HEPES (Thermo Fisher Scientific, cat. 15630080), 1X GlutaMAX supplement (Thermo Fisher Scientific, cat. 35050061), 0.1 mg/mL primocin (InvivoGen, cat. ant-pm-2), 10% defined fetal bovine serum, heat inactivated (HyClone Laboratories Inc., cat. SH30070.03HI), 1.25 mM N-Acetyl-L-cysteine (Sigma-Aldrich, cat. A9165), 10 mM nicotinamide (Sigma-Aldrich, cat. N0636), 1X B-27 supplement (Thermo Fisher Scientific, cat. 17504044), 1X N-2 supplement (Thermo Fisher Scientific, cat. 17502048), and 10 microM Y-27632 dihydrochloride (Tocris Bioscience, cat. 1254). The 876862-298-R-J1-PDC was cultured in 6E media, which includes all 6B/Colon 1A media components plus 50% L-WRN conditioned media (ATCC, cat. CRL-3276), 50 ng/mL recombinant human EGF recombinant protein (hEGF; Thermo Fisher Scientific, cat. PHG0311), 10 ng/mL recombinant human fibroblast growth factor 10 (hGFG-10; PeproTech, cat. 100-26), 1 ng/mL recombinant human fibroblast growth factor 2 (hFGF-2; PeproTech, cat. 100-18B), and 1 µM prostaglandin E2 (PGE2; Tocris, cat. 2296). The 227483-062-R1-J1-PDC line was cultured in Panc media, containing all 6E components except hFGF-2, with the addition of 500 nM SB-431542 (Selleckchem, cat. S1067) and 10 nM gastrin (Tocris, cat. 3006). […]", "note": "Where “and” joins values, the source holds several entries; their conditions need not be identical. Equal entries are not always repeated.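 Further: viability read after seven days of drug exposure.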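 Wherever viability, T/C is given: 100% = DMSO vehicle control wells.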", "data": [{"smiles": "CCc1c2c(nc3ccc(O)cc13)-c1cc3c(c(=O)n1C2)COC(=O)[C@]3(O)CC", "note": "+ CNC(=O)c1ccc(Nc2nc(OC3CCCC3)c3c(-c4ccc5nc(C)oc5c4)c[nH]c3n2)c(OC)c1", "values": [{"measurement": "IC50", "setting": "curve of first compound, second compound 0.0316 µM", "value": "< 3.16", "unit": "nM"}, {"measurement": "IC50", "setting": "curve of first compound, second compound 0.1 µM", "value": "< 3.16", "unit": "nM"}, {"measurement": "IC50", "setting": "curve of first compound, second compound 0.316 µM", "value": "< 3.16", "unit": "nM"}, {"measurement": "IC50", "setting": "curve of first compound, second compound 1 µM", "value": "< 3.16", "unit": "nM"}, {"measurement": "IC50", "setting": "curve of first compound, second compound 3.16 µM", "value": "< 3.16", "unit": "nM"}, {"measurement": "IC50", "setting": "curve of first compound, second compound 10 µM", "value": "< 3.16", "unit": "nM"}, {"measurement": "viability, T/C", "setting": "second compound 0.0316 µM, first compound 0.00316 µM", "value": 17.9, "unit": "%"}, {"measurement": "viability, T/C", "setting": "second compound 0.0316 µM, first compound 0.01 µM", "value": 12.3, "unit": "%"}, {"measurement": "viability, T/C", "setting": "second compound 0.0316 µM, first compound 0.0316 µM", "value": 12.7, "unit": "%"}, {"measurement": "viability, T/C", "setting": "second compound 0.0316 µM, first compound 0.1 µM", "value": 13, "unit": "%"}, {"measurement": "viability, T/C", "setting": "second compound 0.0316 µM, first compound 0.316 µM", "value": 11.2, "unit": "%"}, {"measurement": "viability, T/C", "setting": "second compound 0.0316 µM, first compound 1 µM", "value": 2.24, "unit": "%"}, {"measurement": "viability, T/C", "setting": "second compound 0.1 µM, first compound 0.00316 µM", "value": 17.9, "unit": "%"}, {"measurement": "viability, T/C", "setting": "second compound 0.1 µM, first compound 0.01 µM", "value": 13.3, "unit": "%"}, {"measurement": "viability, T/C", "setting": "second compound 0.1 µM, first compound 0.0316 µM", "value": 12.5, "unit": "%"}, {"measurement": "viability, T/C", "setting": "second compound 0.1 µM, first compound 0.1 µM", "value": 12.7, "unit": "%"}, {"measurement": "viability, T/C", "setting": "second compound 0.1 µM, first compound 0.316 µM", "value": 11.3, "unit": "%"}, {"measurement": "viability, T/C", "setting": "second compound 0.1 µM, first compound 1 µM", "value": 2.05, "unit": "%"}, {"measurement": "viability, T/C", "setting": "second compound 0.316 µM, first compound 0.00316 µM", "value": 14.6, "unit": "%"}, {"measurement": "viability, T/C", "setting": "second compound 0.316 µM, first compound 0.01 µM", "value": 11.1, "unit": "%"}, {"measurement": "viability, T/C", "setting": "second compound 0.316 µM, first compound 0.0316 µM", "value": 11.8, "unit": "%"}, {"measurement": "viability, T/C", "setting": "second compound 0.316 µM, first compound 0.1 µM", "value": 12.1, "unit": "%"}, {"measurement": "viability, T/C", "setting": "second compound 0.316 µM, first compound 0.316 µM", "value": 9.98, "unit": "%"}, {"measurement": "viability, T/C", "setting": "second compound 0.316 µM, first compound 1 µM", "value": 1.99, "unit": "%"}, {"measurement": "viability, T/C", "setting": "second compound 1 µM, first compound 0.00316 µM", "value": 12.2, "unit": "%"}, {"measurement": "viability, T/C", "setting": "second compound 1 µM, first compound 0.01 µM", "value": 9.22, "unit": "%"}, {"measurement": "viability, T/C", "setting": "second compound 1 µM, first compound 0.0316 µM", "value": 10.1, "unit": "%"}, {"measurement": "viability, T/C", "setting": "second compound 1 µM, first compound 0.1 µM", "value": 8.69, "unit": "%"}, {"measurement": "viability, T/C", "setting": "second compound 1 µM, first compound 0.316 µM", "value": 8.5, "unit": "%"}, {"measurement": "viability, T/C", "setting": "second compound 1 µM, first compound 1 µM", "value": 1.33, "unit": "%"}, {"measurement": "viability, T/C", "setting": "second compound 3.16 µM, first compound 0.00316 µM", "value": 11.4, "unit": "%"}, {"measurement": "viability, T/C", "setting": "second compound 3.16 µM, first compound 0.01 µM", "value": 9.74, "unit": "%"}, {"measurement": "viability, T/C", "setting": "second compound 3.16 µM, first compound 0.0316 µM", "value": 8.18, "unit": "%"}, {"measurement": "viability, T/C", "setting": "second compound 3.16 µM, first compound 0.1 µM", "value": 8, "unit": "%"}, {"measurement": "viability, T/C", "setting": "second compound 3.16 µM, first compound 0.316 µM", "value": 6.57, "unit": "%"}, {"measurement": "viability, T/C", "setting": "second compound 3.16 µM, first compound 1 µM", "value": 1.29, "unit": "%"}, {"measurement": "viability, T/C", "setting": "second compound 10 µM, first compound 0.00316 µM", "value": 10.2, "unit": "%"}, {"measurement": "viability, T/C", "setting": "second compound 10 µM, first compound 0.01 µM", "value": 10.8, "unit": "%"}, {"measurement": "viability, T/C", "setting": "second compound 10 µM, first compound 0.0316 µM", "value": 8.22, "unit": "%"}, {"measurement": "viability, T/C", "setting": "second compound 10 µM, first compound 0.1 µM", "value": 8.16, "unit": "%"}, {"measurement": "viability, T/C", "setting": "second compound 10 µM, first compound 0.316 µM", "value": 6.28, "unit": "%"}, {"measurement": "viability, T/C", "setting": "second compound 10 µM, first compound 1 µM", "value": 1.01, "unit": "%"}]}, {"smiles": "O=C(c1cc(Cc2n[nH]c(=O)c3ccccc23)ccc1F)N1CCN(C(=O)C2CC2)CC1", "values": [{"measurement": "viability, T/C", "setting": "compound 0.0316 µM", "value": "73.8% and 84.1%"}, {"measurement": "viability, T/C", "setting": "compound 0.1 µM", "value": "75.1% and 88.4%"}, {"measurement": "viability, T/C", "setting": "compound 0.316 µM", "value": "71.4% and 72.4%"}, {"measurement": "viability, T/C", "setting": "compound 1 µM", "value": "83.3% and 73.8%"}, {"measurement": "viability, T/C", "setting": "compound 3.16 µM", "value": "57% and 60.5%"}, {"measurement": "viability, T/C", "setting": "compound 10 µM", "value": "31.8% and 31.7%"}, {"measurement": "IC50", "setting": "curve of compound", "value": "4350 nM and 4650 nM"}]}]}
